Assay results taken from US11833207B2, “Adipocyte-targeting DNA nanodrug and preparation and uses thereof” (HUNAN UNIVERSITY, priority 2020, dated 2023).

What was measured:
BSA = BSA (Bos taurus, UniProt P02769); assay: Nonspecific protein (BSA) absorption by BSA fluorescence
3T3-L1 preadipocytes = format: cell-based; conditions: mouse, 24 h
Procedure: 3T3-L1 preadipocytes were seeded in a 96-well plate at 10^4/well. After culturing for 24 h, the preadipocytes were added with TA, TDM or TADN for another 24 h culture. The culture medium was removed, and the cells were washed twice with PBS, followed by the addition of 100 μL of fresh culture medium and 10 μL of CCK-8 for the CCK-8 assay according to the manufacturer's protocol. The UV absorbance of each well at 450 nm was recorded using a Synergy 2 multifunctional microplate reader (Bio-Tek, Winooski, Vt.).

[1] = EPR measurement of O2·− scavenging (DEPMPO trapper)
Procedure: Electron paramagnetic resonance (EPR) measurements were performed to evaluate the O2·^−- and ·OH-scavenging abilities of DNA hybrid nanostructures TADN. DEPMPO was used as the trapper. O2·^− was generated by dissolving KO2 in DMSO/crown ether (0.2 M). ·OH was produced by the Fenton-type reaction using H2O2 and CuSO4.

BSA, sequence (P02769 25-607): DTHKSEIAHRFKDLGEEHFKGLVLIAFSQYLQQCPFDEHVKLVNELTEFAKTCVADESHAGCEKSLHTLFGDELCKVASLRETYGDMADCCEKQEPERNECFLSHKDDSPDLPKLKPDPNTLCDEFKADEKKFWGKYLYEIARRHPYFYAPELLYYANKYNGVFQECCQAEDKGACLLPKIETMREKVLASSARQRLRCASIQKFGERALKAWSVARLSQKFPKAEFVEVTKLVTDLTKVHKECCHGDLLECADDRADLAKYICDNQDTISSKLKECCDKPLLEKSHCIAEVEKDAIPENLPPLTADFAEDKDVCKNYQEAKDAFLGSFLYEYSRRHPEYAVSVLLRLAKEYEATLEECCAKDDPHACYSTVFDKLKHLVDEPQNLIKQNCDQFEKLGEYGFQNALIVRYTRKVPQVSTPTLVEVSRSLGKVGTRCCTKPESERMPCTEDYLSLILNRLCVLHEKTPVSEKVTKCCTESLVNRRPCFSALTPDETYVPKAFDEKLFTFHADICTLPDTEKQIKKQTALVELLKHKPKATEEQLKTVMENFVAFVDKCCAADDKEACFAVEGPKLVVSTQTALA

protein adsorption (BSA): tended to absorb proteins
O2·−-scavenging stability ([1]; after 24 h): almost disappeared
Compound: O=C(OC[C@H]1O[C@@H](OC(=O)c2cc(O)c(O)c(OC(=O)c3cc(O)c(O)c(O)c3)c2)[C@H](OC(=O)c2cc(O)c(O)c(OC(=O)c3cc(O)c(O)c(O)c3)c2)[C@@H](OC(=O)c2cc(O)c(O)c(OC(=O)c3cc(O)c(O)c(O)c3)c2)[C@@H]1OC(=O)c1cc(O)c(O)c(OC(=O)c2cc(O)c(O)c(O)c2)c1)c1cc(O)c(O)c(OC(=O)c2cc(O)c(O)c(O)c2)c1 [TA, tannic acid]
concentration above which cytotoxicity increases (3T3-L1 preadipocytes): above 25 μM
O2·−-scavenging activity ([1]; EPR): comparable scavenging activity to TADN
